# According to patent US9212168B2 (priority 2011, dated 2015):
# Tested on: HCV genotype 1a replicon
# Assay: HCV genotype 1a replicon assay (NS3 protease activity readout)
# Assay type: cell-based, hepatitis C virus
# Conditions: HCV genotype 1a replicon
# How it was run: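 Genotype 1a subgenomic replicon cells (APC89, Huh7.5) were treated with compound dose-responses in G418-free medium, 0.5% DMSO final, for 48 or 72 hours at 37° C. Lysate NS3/4a protease activity measured with 15 μM FRET substrate, 20 min at 37° C (ex 340/em 509 nm); EC50 by 4-parameter fit.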
row,SMILES,Genotype 1a
1,COC(=O)NC(C(=O)N1CC(C)CC1c1nc(-c2ccc(-c3ccc(NC(=O)c4ccc(N5CCN(C(=O)C(C)(C)C)CC5C)nc4)cc3OC(F)(F)F)cc2)c[nH]1)C(C)O (stereo not shown) [Example 13-13],D (D represents pEC50>10 (EC50<0.1 nM))
2,COC(=O)N[C@H](C(=O)N1C[C@@H](C)C[C@H]1c1nc(-c2ccc(-c3ccc(C(=O)Nc4ccc(N5C[C@H](C)N(C(=O)NC6CC6)C[C@H]5C)nc4)cc3OC(F)(F)F)cc2)c[nH]1)C(C)C [Example 4-24],"C (C represents pEC50 between and 9 and about 10, (EC50 between 1 nM and 0.1 nM))"
3,COC(=O)N[C@H](C(=O)N1C[C@@H](C)C[C@H]1c1nc(-c2ccc(-c3cc(Cl)c(NC(=O)c4ccc(N5CCN(C(=O)C(C)(C)CO)C(CO)C5)nc4)cc3OC(F)(F)F)cc2)c[nH]1)C(C)C (stereo partly shown) [Example 14-3],"C (C represents pEC50 between and 9 and about 10, (EC50 between 1 nM and 0.1 nM))"
4,COC(=O)N[C@H](C(=O)N1C[C@@H](OC)C[C@H]1c1nc(-c2ccc(-c3cc(Cl)c(NC(=O)c4ccc(N5C[C@H](C)N(C(=O)C6CC6)C[C@H]5C)nc4)cc3OC(F)(F)F)cc2)c[nH]1)C1CCOCC1 [Example 28-10],D (D represents pEC50>10 (EC50<0.1 nM))
5,COC(=O)N[C@H](C(=O)N1CC(C)(C)C[C@H]1c1nc(-c2ccc(-c3cc(F)c(NC(=O)c4ccc(N5CCN(C(=O)[C@]6(C)CCCN6C(=O)[C@@H](NC(=O)OC)C(C)C)C[C@H]5C)nc4)cc3C(F)(F)F)cc2)c[nH]1)C(C)C [Example 3-2],D (D represents pEC50>10 (EC50<0.1 nM))
6,COC(=O)N[C@H](C(=O)N1C[C@@H](C)C[C@H]1c1nc(-c2ccc(-c3ccc(C(=O)Nc4ccc(N5C[C@H](C)N(C(=O)C(C)(C)NC(C)=O)C[C@H]5C)nc4)cc3OC(F)(F)F)cc2)c[nH]1)C(C)C [Example 4-27],"C (C represents pEC50 between and 9 and about 10, (EC50 between 1 nM and 0.1 nM))"
7,COC(=O)N[C@H](C(=O)N1C[C@@H](O)C[C@H]1c1nc(-c2ccc(-c3cc(F)c(NC(=O)c4ccc(N5CCN(C(=O)C(C)(C)C)C[C@H]5C)nc4)cc3OC(F)(F)F)cc2)c[nH]1)C(C)C [Example 26-6],"C (C represents pEC50 between and 9 and about 10, (EC50 between 1 nM and 0.1 nM))"
8,COC(=O)N[C@H](C(=O)N1C[C@@H](O)C[C@H]1c1nc(-c2ccc(-c3cc(Cl)c(NC(=O)c4ccc(N5CCN(C(=O)C(C)(C)CO)C[C@H]5C)nc4)cc3OC(F)(F)F)cc2)c[nH]1)C(C)C [Example 26-9],"C (C represents pEC50 between and 9 and about 10, (EC50 between 1 nM and 0.1 nM))"
9,COC(=O)N[C@H](C(=O)N1C[C@@H](C)C[C@H]1c1nc(-c2ccc(-c3cc(Cl)c(NC(=O)c4ccc(N5CCN(C(=O)[C@H]6CCCN6C(=O)C(C)(C)C)C[C@H]5C)nc4)cc3OC(F)(F)F)cc2)c[nH]1)C(C)C [Example 1-50],D (D represents pEC50>10 (EC50<0.1 nM))
10,COC(=O)N[C@H](C(=O)N1C[C@@H](C)C[C@H]1c1nc(-c2ccc(-c3ccc(C(=O)Nc4ccc(N5CCN(C(=O)[C@H]6CC6(C)C)C[C@H]5C)nc4)cc3)cc2)c[nH]1)C1CCOCC1 [Example 22-2],D (D represents pEC50>10 (EC50<0.1 nM))
11,COC(=O)N[C@H](C(=O)N1C[C@@H](C)C[C@H]1c1nc(-c2ccc(-c3cc(F)c(NC(=O)c4ccc(N5C[C@H](C)N(C(=O)c6c[nH]cn6)C[C@H]5C)nc4)cc3C(F)(F)F)cc2)c[nH]1)C(C)C [Example 1-21],D (D represents pEC50>10 (EC50<0.1 nM))
12,COC(=O)N[C@H](C(=O)N1C[C@@H](C)C[C@H]1c1nc(-c2ccc(-c3cc(Cl)c(NC(=O)c4ccc(N5CCN(C(=O)C(C)(C)CO)C(CO)C5)nc4)cc3OC(F)(F)F)cc2)c[nH]1)C(C)C (stereo partly shown) [Example 14-4],B (B represents pEC50 between 8 and 9 (EC50 between 1 and 10 nM))
13,COC(=O)N[C@H](C(=O)N1C[C@@H](C)C[C@H]1c1nc(-c2ccc(-c3ccc(C(=O)Nc4ccc(N5CCN(C(=O)N(C)C)C[C@H]5C)nc4)cc3OC(F)(F)F)cc2)c[nH]1)C(C)C [Example 4-33],"C (C represents pEC50 between and 9 and about 10, (EC50 between 1 nM and 0.1 nM))"
14,COC(=O)N[C@H](C(=O)N1C[C@@H](OC)C[C@H]1c1nc(-c2ccc(-c3cc(Cl)c(NC(=O)c4ccc(N5CCN(C(=O)C(C)(C)CO)C[C@H]5C)nc4)cc3C(F)(F)F)cc2)c[nH]1)C1CCOCC1 [Example 19-13],D (D represents pEC50>10 (EC50<0.1 nM))
15,COC(=O)N[C@H](C(=O)N1C[C@@H](C)C[C@H]1c1nc(-c2ccc(-c3ccc(C(=O)Nc4ccc(N5C[C@H](C)N(C(=O)C(C)(C)C)C[C@H]5C)nc4)cc3OC(F)(F)F)cc2)c[nH]1)C(C)C [Example 4-15],D (D represents pEC50>10 (EC50<0.1 nM))
16,COC(=O)N[C@H](C(=O)N1C[C@@H](OC)C[C@H]1c1nc(-c2ccc(-c3cc(Cl)c(NC(=O)c4ccc(N5CCN(C(=O)C(C)(C)C)C[C@H]5C)nc4)cc3C(F)(F)F)cc2)c[nH]1)C1CCOCC1 [Example 19-16],D (D represents pEC50>10 (EC50<0.1 nM))

# Same assay, conditions: Hepatitis C virus, read-out: Genotype 1a, HCV genotype 1a replicon
row,SMILES,EC50
1,CCO[C@H]1C[C@@H](c2nc(-c3ccc(-c4cc(Cl)c(C(=O)Nc5ccc(N6CCN(C(=O)C(C)(C)C)C[C@H]6C)nc5)cc4OC(F)(F)F)cc3)c[nH]2)N(C(=O)[C@@H](NC(=O)OC)C(C)C)C1 [Example 6-27],0.1 to 1 nM
2,COC(=O)N[C@H](C(=O)N1C[C@@H](C)C[C@H]1c1nc(-c2ccc(-c3cc(Cl)c(NC(=O)c4ccc(N5CCN(C(=O)C6(N(C)C)CC6)C[C@H]5C)nc4)cc3OC(F)(F)F)cc2)c[nH]1)C(C)C [Example 12-10],< 0.1 nM
3,COCC1(C(=O)N2CCN(c3ccc(C(=O)Nc4cc(OC(F)(F)F)c(-c5ccc(-c6c[nH]c([C@@H]7C[C@H](C)CN7C(=O)[C@@H](NC(=O)OC)C(C)C)n6)cc5)cc4Cl)cn3)[C@H](C)C2)CCC1 [Example 12-45],< 0.1 nM
4,COC(=O)N[C@H](C(=O)N1C[C@@H](C)C[C@H]1c1nc(-c2ccc(-c3cc(Cl)c(NC(=O)c4ccc(N5CCN(C(=O)C(C)(C)C)C[C@H]5C)nc4)cc3OC(F)(F)F)cc2)c[nH]1)C1CCCCC1 [Example 13-39],1 to 10 nM
5,COC(=O)N[C@H](C(=O)N1C[C@@H](N2CCCC2)C[C@H]1c1nc(-c2ccc(-c3cc(Cl)c(NC(=O)c4ccc(N5CCN(C(=O)C(C)(C)C)C[C@H]5C)nc4)cc3OC(F)(F)F)cc2)c[nH]1)C(C)C [Example 15-9],< 0.1 nM
6,COC(=O)N[C@H](C(=O)N1C[C@@H](C)C[C@H]1c1nc(-c2ccc(-c3cc(Cl)c(NC(=O)c4ccc(N5CCN(C(=O)C(C)(C)CNS(C)(=O)=O)C[C@H]5C)nc4)cc3OC(F)(F)F)cc2)c[nH]1)C(C)C [Example 12-46],< 0.1 nM
7,COC(=O)NC(C(=O)N1C[C@@H](C)C[C@H]1c1nc(-c2ccc(-c3ccc(C(=O)Nc4ccc(N5CCN(C(=O)C(C)(C)C)C[C@H]5C)nc4)c(F)c3OC(F)(F)F)cc2)c[nH]1)C(C)C (stereo partly shown) [Example 25-1],0.1 to 1 nM
8,COC[C@H]1C[C@@H](c2nc(-c3ccc(-c4cc(Cl)c(NC(=O)c5ccc(N6CCN(C(=O)C(C)(C)C)C[C@H]6C)nc5)cc4OC(F)(F)F)cc3)c[nH]2)N(C(=O)[C@@H](NC(=O)OC)C(C)C)C1 [Example 15-13],< 0.1 nM
9,COC(=O)N[C@H](C(=O)N1C[C@@H]([S+](C)[O-])C[C@H]1c1nc(-c2ccc(-c3ccc(C(=O)Nc4ccc(N5CCN(C(=O)C(C)(C)C)C[C@H]5C)nc4)cc3OC(F)(F)F)cc2)c[nH]1)C(C)C (stereo partly shown) [Example 6-19],0.1 to 1 nM
